# Measured values from the supplement of paper PMC10307832.
# Legend:
# Assay in all cases: relative viability (nuclei count vs DMSO), 5 days (fraction); higher = more cells survive
# [1] = tested on: BEN
# Procedure, shortened: (§1)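 After 5 days of treatment, lung cancer cells in 1536-well plates were fixed and stained in a single step (final 0.05% Triton X-100, 1% formaldehyde, 1 ug/ml Hoechst) and their nuclei counted on 4× images. Treatment had been applied by pin tool the day after seeding as one drug alone or as a fixed anchor-drug dose with five library-drug doses (not always all listed) in √10 steps. Relative viability is the nuclei count of treated wells divided by that of vehicle wells, and values are medians of duplicate plates.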
# [2] = tested on: NCI-H2087
# Procedure, shortened: as §1
# [3] = tested on: SW 1573
# Procedure, shortened: as §1
# [4] = tested on: NCI-H1650
# Procedure, shortened: as §1
# [5] = tested on: HCC-827
# Procedure, shortened: as §1
# [6] = tested on: A-427
# Procedure, shortened: as §1
# [7] = tested on: COR-L23
# Procedure, shortened: as §1
# [8] = tested on: NCI-H2126
# Procedure, shortened: as §1
# [9] = tested on: LCLC-103H
# Procedure, shortened: as §1
# [10] = tested on: 201T
# Procedure, shortened: as §1
# [11] = tested on: NCI-H1793
# Procedure, shortened: as §1
# [12] = tested on: NCI-H1651
# Procedure, shortened: as §1
# [13] = tested on: EMC-BAC-2
# Procedure, shortened: as §1
# [14] = tested on: NCI-H596
# Procedure, shortened: as §1
# [15] = tested on: NCI-H441
# Procedure, shortened: as §1
# [16] = tested on: EPLC-272H
# Procedure, shortened: as §1
# [17] = tested on: NCI-H460
# Procedure, shortened: as §1
# [18] = tested on: HCC-44
# Procedure, shortened: as §1
# [19] = tested on: LK-2
# Procedure, shortened: as §1
# [20] = tested on: NCI-H1915
# Procedure, shortened: as §1
# [21] = tested on: NCI-H2347
# Procedure, shortened: as §1
# [22] = tested on: EKVX
# Procedure, shortened: as §1
# [23] = tested on: NCI-H358
# Procedure, shortened: as §1
# [24] = tested on: SW 900
# Procedure, shortened: as §1
# [25] = tested on: LXF-289
# Procedure, shortened: as §1
compound,measurement,setting,value
CCCCCCCCCCCC1=C(O)C(=O)C=C(O)C1=O [Embelin] + N=C(N)NC(=N)NCCc1ccccc1 [Phenformin] (partner 250 µM),relative viability,[1]; first compound 0.08 µM,0.267
same,relative viability,[1]; first compound 0.8 µM,0.285
same,relative viability,[1]; first compound 2.53 µM,0.264
same,relative viability,[1]; first compound 8 µM,0.263
same,relative viability,[2]; first compound 0.08 µM,0.486
same,relative viability,[2]; first compound 0.8 µM,0.459
same,relative viability,[2]; first compound 2.53 µM,0.426
same,relative viability,[2]; first compound 8 µM,0.479
same,relative viability,[3]; first compound 0.08 µM,0.433
same,relative viability,[3]; first compound 0.8 µM,0.366
same,relative viability,[3]; first compound 2.53 µM,0.479
same,relative viability,[3]; first compound 8 µM,0.376
same,relative viability,[4]; first compound 0.08 µM,0.434
same,relative viability,[4]; first compound 0.8 µM,0.558
same,relative viability,[4]; first compound 2.53 µM,0.485
same,relative viability,[4]; first compound 8 µM,0.376
same,relative viability,[5]; first compound 0.08 µM,0.426
same,relative viability,[5]; first compound 0.8 µM,0.451
same,relative viability,[5]; first compound 2.53 µM,0.477
same,relative viability,[5]; first compound 8 µM,0.443
same,relative viability,[6]; first compound 0.08 µM,0.359
same,relative viability,[6]; first compound 0.8 µM,0.411
same,relative viability,[6]; first compound 2.53 µM,0.328
same,relative viability,[6]; first compound 8 µM,0.363
same,relative viability,[7]; first compound 0.08 µM,0.448
same,relative viability,[7]; first compound 0.8 µM,0.542
same,relative viability,[7]; first compound 2.53 µM,0.426
same,relative viability,[7]; first compound 8 µM,0.462
same,relative viability,[8]; first compound 0.08 µM,0.556
same,relative viability,[8]; first compound 0.8 µM,0.609
same,relative viability,[8]; first compound 2.53 µM,0.591
same,relative viability,[8]; first compound 8 µM,0.476
same,relative viability,[9]; first compound 0.08 µM,0.337
same,relative viability,[9]; first compound 0.8 µM,0.343
same,relative viability,[9]; first compound 2.53 µM,0.367
same,relative viability,[9]; first compound 8 µM,0.286
same,relative viability,[10]; first compound 0.08 µM,0.432
same,relative viability,[10]; first compound 0.8 µM,0.49
same,relative viability,[10]; first compound 2.53 µM,0.482
same,relative viability,[10]; first compound 8 µM,0.385
same,relative viability,[11]; first compound 0.08 µM,0.355
same,relative viability,[11]; first compound 0.8 µM,0.42
same,relative viability,[11]; first compound 2.53 µM,0.473
same,relative viability,[11]; first compound 8 µM,0.352
same,relative viability,[12]; first compound 0.08 µM,0.346
same,relative viability,[12]; first compound 0.8 µM,0.412
same,relative viability,[12]; first compound 2.53 µM,0.361
same,relative viability,[12]; first compound 8 µM,0.321
same,relative viability,[13]; first compound 0.08 µM,0.56
same,relative viability,[13]; first compound 0.8 µM,0.669
same,relative viability,[13]; first compound 2.53 µM,0.471
same,relative viability,[13]; first compound 8 µM,0.504
same,relative viability,[14]; first compound 0.08 µM,0.743
same,relative viability,[14]; first compound 0.8 µM,0.744
same,relative viability,[14]; first compound 2.53 µM,1.03
same,relative viability,[14]; first compound 8 µM,0.582
same,relative viability,[15]; first compound 0.08 µM,0.698
same,relative viability,[15]; first compound 0.8 µM,0.897
same,relative viability,[15]; first compound 2.53 µM,0.957
same,relative viability,[15]; first compound 8 µM,0.982
same,relative viability,[16]; first compound 0.08 µM,0.307
same,relative viability,[16]; first compound 0.8 µM,0.288
same,relative viability,[16]; first compound 2.53 µM,0.288
same,relative viability,[16]; first compound 8 µM,0.288
same,relative viability,[17]; first compound 0.08 µM,0.535
same,relative viability,[17]; first compound 0.8 µM,0.595
same,relative viability,[17]; first compound 2.53 µM,0.66
same,relative viability,[17]; first compound 8 µM,0.256
same,relative viability,[18]; first compound 0.08 µM,0.175
same,relative viability,[18]; first compound 0.8 µM,0.252
same,relative viability,[18]; first compound 2.53 µM,0.0967
same,relative viability,[18]; first compound 8 µM,0.0958
same,relative viability,[19]; first compound 0.08 µM,0.626
same,relative viability,[19]; first compound 0.8 µM,0.278
same,relative viability,[19]; first compound 2.53 µM,0.735
same,relative viability,[19]; first compound 8 µM,0.26
same,relative viability,[20]; first compound 0.08 µM,0.382
same,relative viability,[20]; first compound 0.8 µM,0.382
same,relative viability,[20]; first compound 2.53 µM,0.364
same,relative viability,[20]; first compound 8 µM,0.411
same,relative viability,[21]; first compound 0.08 µM,0.308
same,relative viability,[21]; first compound 0.8 µM,0.386
same,relative viability,[21]; first compound 2.53 µM,0.345
same,relative viability,[21]; first compound 8 µM,0.377
same,relative viability,[22]; first compound 0.08 µM,0.245
same,relative viability,[22]; first compound 0.8 µM,0.229
same,relative viability,[22]; first compound 2.53 µM,0.205
same,relative viability,[22]; first compound 8 µM,0.247
same,relative viability,[23]; first compound 0.08 µM,0.322
same,relative viability,[23]; first compound 0.8 µM,0.398
same,relative viability,[23]; first compound 2.53 µM,0.468
same,relative viability,[23]; first compound 8 µM,0.36
same,relative viability,[24]; first compound 0.08 µM,0.778
same,relative viability,[24]; first compound 0.8 µM,0.733
same,relative viability,[24]; first compound 2.53 µM,0.655
same,relative viability,[24]; first compound 8 µM,0.481
same,relative viability,[25]; first compound 0.08 µM,0.509
same,relative viability,[25]; first compound 0.8 µM,0.547
same,relative viability,[25]; first compound 2.53 µM,0.527
same,relative viability,[25]; first compound 8 µM,0.571
